Laboratory results: patent US20200115357A1, “LIVER X RECEPTORS (LXR) MODULATORS” (Phenex-FXR GmbH, priority 2017, published 2020)

Assays:
[1] = molecular target: T1, LXRβ ligand-binding domain (LBD) (Homo sapiens, UniProt P55055, DUP175-175); experiment: LXR Gal4 reporter transient transfection assay (M2H), Gal4β LBD; type: cell-based; conditions: HEK293 cells; read-out: M2H Gal4β LBD activity range (EC50)
T1 construct: LXRβ (amino acids 156-461); expressed in transfected cells; host or cells: HEK293
T1 sequence (P55055 with tags, fused parts or gaps DUP175-175): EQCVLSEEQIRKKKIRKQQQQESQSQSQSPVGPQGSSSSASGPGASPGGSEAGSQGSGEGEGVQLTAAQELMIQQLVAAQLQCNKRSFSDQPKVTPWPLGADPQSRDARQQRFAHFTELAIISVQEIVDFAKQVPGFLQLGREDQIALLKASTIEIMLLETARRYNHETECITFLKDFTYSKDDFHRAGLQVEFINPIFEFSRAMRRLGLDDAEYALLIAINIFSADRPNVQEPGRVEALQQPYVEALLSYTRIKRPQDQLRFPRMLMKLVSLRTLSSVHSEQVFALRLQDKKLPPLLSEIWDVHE
Experimental: (§1) The tested compounds were usually dissolved, tested and stored as 20 mM stock solutions in DMSO. Since sulfonyl acetic acid derivatives tend to decarboxylate under these conditions, these stock solutions were prepared, tested and stored as 20 mM DMSO stock solutions containing 100 mM trifluoroacetic acid (5 equivalents). Sulfonyl acetic acid derivatives are shelf stable as solid at rt for long time as reported by Griesbrecht et al. (Synlett 2010:374) or Faucher et al. (J. Med. Chem. 2004; 47:18).
(§2) LXR Gal4 Reporter Transient Transfection Assays
(§3) LXRα and LXRβ activity status was determined via detection of interaction with coactivator and corepressor proteins in mammalian two-hybrid experiments (M2H). For this, via transient transfection the full length (FL) proteins of LXRα (amino acids 1-447; NP005684; SEQ ID NO:7) or LXRβ-(amino acids 1-461; NP009052; SEQ ID NO:8) or the ligand-binding domains (LBD) of LXRα (amino acids 155-447 SEQ ID NO:3) or LXRβ (amino acids 156-461; SEQ ID NO:4) were expressed from pCMV-AD (Stratagene) as fusions to the transcriptional activation domain of NFkB. As cofactors, domains of either the steroid receptor coactivator 1 (SRC1; amino acids 552-887; SEQ ID NO:5) or of the corepressor NCoR (amino acids 1903-2312 SEQ ID NO:6) were expressed as fusions to the DNA binding domain of the yeast transcription factor GAL4 (from pCMV-BD; Stratagene). Interaction was monitored via activation of a coexpressed Firefly Luciferase Reporter gene under control of a promoter containing repetitive GAL4 response elements (vector pFRLuc; Stratagene). Transfection efficiency was controlled via cotransfection of constitutively active pRL-CMV Renilla reniformis luciferase reporter (Promega). HEK293 cells were grown in minimum essential medium (MEM) with 2 mM L-glutamine and Earle's balanced salt solution supplemented with 8.3% fetal bovine serum, 0.1 mM non-essential amino acids, 1 mM sodium pyruvate, at 37° C. in 5% CO2. 3.5×10^4 cells/well were plated in 96-well cell culture plates in growth medium supplemented with 8.3% fetal bovine serum for 16-20 h to ˜90% confluency. For transfection, medium was taken off and LXR and cofactor expressing plasmids as well as the reporter plasmids are added in 30 μL OPTIMEM/well including polyethylene-imine (PEI) as vehicle. Typical amounts of plasmids transfected/well: pCMV-AD-LXR (5 ng), pCMV-BD-cofactor (5 ng), pFR-Luc (100 ng), pRL-CMV (0.5 ng). Compound stocks were prepared in DMSO, prediluted in MEM to a total volume of 120 μL, and added 4 h after addition of the transfection mixture (final vehicle concentration not exceeding 0.2%). Cells were incubated for additional 16 h, lysed for 10 min in 1× Passive Lysis Buffer (Promega) and Firefly and Renilla luciferase activities were measured sequentially in the same cell extract using buffers containing D-luciferine and coelenterazine, respectively. Measurements of luminescence were done in a BMG-Iuminometer.

[2] = molecular target: T2, GST-LXRβ ligand-binding domain (Homo sapiens, UniProt P55055, DUP175-175); experiment: TR-FRETβ activity assay (LXRβ-LBD / NCoA3 coactivator peptide, prestimulated with 24(S)-25-epoxycholesterol); type: biochemical; set-up: key to behavior in FRET assay: ag=agonist; ia=inverse agonist; conditions: for EC50: read-out: FRETβ activity range (EC50); for behavior in FRET assay: agonist or inverse agonist
T2 construct: amino acids 156-461; NP009052; made in house; host or cells: E. coli
T2 sequence (P55055 with tags, fused parts or gaps DUP175-175): T1 sequence (P55055 with tags, fused parts or gaps DUP175-175)
Experimental: The tested compounds were usually dissolved, tested and stored as 20 mM stock solutions in DMSO. […] Sulfonyl acetic acid derivatives are shelf stable as solid at rt for long time as reported by Griesbrecht et al. (Synlett 2010:374) or Faucher et al. (J. Med. Chem. 2004; 47:18). TR-FRETβ Activity Assay Recombinant GST-LXRβ ligand-binding domain (LBD; amino acids 156-461; NP009052; SEQ ID NO:2) was expressed in E. coli and purified via gluthatione-sepharose affinity chromatography. N-terminally biotinylated NCoA3 coactivator peptide (SEQ ID NO:1) was chemically synthesized (Eurogentec). […] Finally, a detection mix was added containing anti GST-Tb cryptate (CisBio; 610SAXLB) and Streptavidin-XL665 (CisBio; 610SAXLB) as fluorescent donor and acceptor, respectively, as well as the coactivator peptide and LXRβ-LBD protein (SEQ ID NO:2). The reaction was mixed thoroughly, equilibrated for 1 h at 4° C. and vicinity of LXRβ and coactivator peptide was detected by measurement of fluorescence in a VictorX4 multiplate reader (PerkinElmer Life Science) using 340 nm as excitation and 615 and 665 nm as emission wavelengths. Assays were performed in triplicates. Final Assay Concentrations of Components: 240 mM KCl, 1 μg/μL BSA, 0.002% Triton-X-100, […] anti GST-Tb cryptate, 2.5 ng/μL Streptavidin-XL665, coactivator peptide (400 nM), LXRβ protein ([…], i.e. 76 nM)

[3] = molecular target: T3, LXRα ligand-binding domain (LBD) (Homo sapiens, UniProt Q13133); experiment: LXR Gal4 reporter transient transfection assay (M2H), Gal4α LBD; type: cell-based; conditions: HEK293 cells; read-out: M2H Gal4α LBD activity range (EC50)
T3 construct: expressed in transfected cells; host or cells: HEK293
T3 sequence (Q13133 155-447): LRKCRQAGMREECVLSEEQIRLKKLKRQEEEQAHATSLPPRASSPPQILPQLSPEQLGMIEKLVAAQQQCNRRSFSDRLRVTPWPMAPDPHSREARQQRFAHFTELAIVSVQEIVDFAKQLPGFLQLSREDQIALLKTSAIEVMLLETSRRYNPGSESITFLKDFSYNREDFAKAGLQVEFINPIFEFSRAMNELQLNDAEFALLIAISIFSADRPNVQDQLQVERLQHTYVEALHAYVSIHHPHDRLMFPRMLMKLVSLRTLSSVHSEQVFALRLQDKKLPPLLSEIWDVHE
Experimental: as §1, §2, §3

[4] = molecular target: T4, LXRα full length (FL) (Homo sapiens, UniProt Q13133); experiment: LXR Gal4 reporter transient transfection assay (M2H), Gal4α FL; type: cell-based; conditions: HEK293 cells; for EC50: read-out: M2H Gal4α FL activity range (EC50)
T4 construct: the full length (FL) proteins of LXRα (amino acids 1-447); NP005684; expressed in transfected cells; host or cells: HEK293
T4 sequence (Q13133 1-447): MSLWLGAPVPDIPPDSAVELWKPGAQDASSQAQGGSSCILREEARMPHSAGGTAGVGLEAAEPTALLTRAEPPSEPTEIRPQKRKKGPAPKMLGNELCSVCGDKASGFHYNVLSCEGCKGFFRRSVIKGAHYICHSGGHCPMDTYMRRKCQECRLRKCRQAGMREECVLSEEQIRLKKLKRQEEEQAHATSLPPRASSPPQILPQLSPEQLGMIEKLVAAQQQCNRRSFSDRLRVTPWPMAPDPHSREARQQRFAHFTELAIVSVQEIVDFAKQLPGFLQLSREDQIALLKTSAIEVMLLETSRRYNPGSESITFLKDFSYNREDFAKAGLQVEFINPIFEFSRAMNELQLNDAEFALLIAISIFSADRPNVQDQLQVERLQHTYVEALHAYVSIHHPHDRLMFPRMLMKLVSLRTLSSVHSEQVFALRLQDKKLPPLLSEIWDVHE
Experimental: as §1, §2, §3

[5] = molecular target: T5, LXRβ full length (FL) (Homo sapiens, UniProt P55055, DUP175-175); experiment: LXR Gal4 reporter transient transfection assay (M2H), Gal4β FL; type: cell-based; conditions: HEK293 cells; read-out: M2H Gal4β FL activity range (EC50)
T5 construct: the full length (FL) proteins of LXRα (amino acids 1-447); NP005684; NP009052; expressed in transfected cells; host or cells: HEK293
T5 sequence (P55055 with tags, fused parts or gaps DUP175-175): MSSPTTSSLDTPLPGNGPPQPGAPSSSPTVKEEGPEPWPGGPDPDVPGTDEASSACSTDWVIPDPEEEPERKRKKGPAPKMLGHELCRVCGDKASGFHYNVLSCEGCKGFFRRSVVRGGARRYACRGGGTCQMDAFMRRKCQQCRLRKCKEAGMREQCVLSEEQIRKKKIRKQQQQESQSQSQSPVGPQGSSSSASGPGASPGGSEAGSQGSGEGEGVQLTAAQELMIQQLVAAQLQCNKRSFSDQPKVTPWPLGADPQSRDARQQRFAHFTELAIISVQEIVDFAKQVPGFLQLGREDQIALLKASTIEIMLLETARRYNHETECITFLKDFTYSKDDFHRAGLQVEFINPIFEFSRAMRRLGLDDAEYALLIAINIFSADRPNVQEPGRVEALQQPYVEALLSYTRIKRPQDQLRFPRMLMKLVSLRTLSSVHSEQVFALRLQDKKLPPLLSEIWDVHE
Experimental: as §1, §2, §3

[6] = 1 μM 24(S)-25-epoxycholesterol as prestimulating agonist

| EC50 [1] | EC50 [2, 6] | behavior in FRET assay [2] | EC50 [3] | EC50 [4] | EC50 [5] | M2H Gal4α FL activity range (EC50) [4] | FRETβ activity range (EC50) [2, 6] | SMILES |
| --- | --- | --- | --- | --- | --- | --- | --- | --- |
| 100 to 1000 nM | 1000 to 10000 nM | ia | 100 to 1000 nM | – | – | – | – | Cc1cc(C)c(S(=O)(=O)N(Cc2ccc(-c3cccc(CC(=O)O)c3)cc2)Cc2cccc(Br)c2)c(C)c1 [2/3] |
| – | 1000 to 10000 nM | ia | – | 1000 to 10000 nM | 1000 to 10000 nM | – | – | Cc1cc(C)c(S(=O)(=O)N(Cc2ccc(-c3cccc(S(=O)(=O)CC(=O)O)c3)cc2)Cc2cccc(C(F)(F)F)c2)c(C)c1 [Example 11, 2-((4′-(((2,4,6-Trimethyl-N-(3-(trifluoromethyl)benzyl)phenyl)sulfonamido)methyl)-[1,1′-biphenyl]-3-yl)sulfonyl)acetic acid] |
| – | 1000 to 10000 nM | ag | – | – | 1000 to 10000 nM | inactive | – | Cc1cc(F)c(S(=O)(=O)N(Cc2ccc(-c3cccc(S(=O)(=O)CC(=O)O)c3)cc2)Cc2ccc(C(F)(F)F)o2)c(F)c1 [Example 14/1] |
| – | 1000 to 10000 nM | – | – | 1000 to 10000 nM | 1000 to 10000 nM | – | – | Cc1cc(C)c(S(=O)(=O)N(Cc2ccc(-c3cccc(S(=O)(=O)CC(=O)O)c3)cc2)C(C)(C)c2ccc(C(F)(F)F)o2)c(C)c1 [Example 17, 2-((4′-(((2,4,6-Trimethyl-N-(2-(5-(trifluoromethyl)furan-2-yl)propan-2-yl)phenyl)sulfon-amido)methyl)-[1,1′-biphenyl]-3-yl)sulfonyl)acetic acid] |
| – | 1000 to 10000 nM | ia | – | 1000 to 10000 nM | 1000 to 10000 nM | – | – | Cc1cc(C)c(S(=O)(=O)N(CCc2ccc(C(F)(F)F)o2)Cc2ccc(-c3cccc(S(=O)(=O)CC(=O)O)c3)cc2)c(C)c1 [Example 17/1] |

Second part, the compound before the results:

| SMILES | EC50 [1] | EC50 [2, 6] | behavior in FRET assay [2] | EC50 [3] | EC50 [4] | EC50 [5] | M2H Gal4α FL activity range (EC50) [4] | FRETβ activity range (EC50) [2, 6] |
| --- | --- | --- | --- | --- | --- | --- | --- | --- |
| CC(C)(C(=O)O)c1cccc(-c2ccc(CN(Cc3ccc(C(F)(F)F)o3)S(=N)(=O)c3cccc4ccccc34)cc2)c1 (stereo not shown) [Example 26, 2-Methyl-2-(4′-((N-((5-(trifluoromethyl)furan-2-yl)methyl)naphthalene-1-sulfonoamid-imidamido)methyl)-[1,1′-biphenyl]-3-yl)propanoic acid] | – | 100 to 1000 nM | ia | – | < 100 nM | < 100 nM | – | – |
| Cc1ccc2ccccc2c1[S+]([O-])N(Cc1ccc(-c2cccc(C(C)(C)C(=O)O)c2)cc1)Cc1ccc(C(F)(F)F)o1 (stereo not shown) [Example 27, 2-Methyl-2-(4′-((((2-methylnaphthalen-1-yl)sulfinyl)((5-(trifluoromethyl)furan-2-yl)methyl)amino)methyl)-[1,1′-biphenyl]-3-yl)propanoic acid] | – | 100 to 1000 nM | ia | – | < 100 nM | < 100 nM | – | – |
| Cc1ccc2cccnc2c1S(=O)(=O)N(Cc1ccc(-c2cccc(C(C)(C)C(=O)NS(C)(=O)=O)c2)cc1)Cc1ccc(C(F)(F)F)o1 [Example 29, 2-Methyl-2-(4′-(((7-methyl-N-((5-(trifluoromethyl)furan-2-yl)methyl)quinoline)-8-sulfon-amido)methyl)-[1,1′-biphenyl]-3-yl)-N-(methylsulfonyl)propanamide] | – | – | – | – | 100 to 1000 nM | 100 to 1000 nM | – | inactive |
| Cc1ccc2cccnc2c1S(=O)(=O)N(Cc1ccc(-c2cccc(C(C)(C)C(=O)NO)c2)cc1)Cc1ccc(C(F)(F)F)o1 [Example 30, N-Hydroxy-2-methyl-2-(4′-(((7-methyl-N-((5-(trifluoromethyl)furan-2-yl)methyl)quinoline)-8-sulfonamido)methyl)-[1,1′-biphenyl]-3-yl)propanamide] | – | 100 to 1000 nM | ag | – | < 100 nM | < 100 nM | – | – |
